Values joined by “and” are separate entries in the source; they are usually repeats but may differ in a detail not shown here. Identical values can stand only once. Like-named read-outs stand apart in the source and are kept apart here.
Experiments:
[1] = biological target: T1, mCB1R (Mus musculus, UniProt P47746); assay: biochemical
T1 construct: from tissue; host or cells: brain of male C57BL/6J mice

[2] = biological target: T2, MAGL (Homo sapiens, UniProt Q99685); assay: Biochemical MAGL activity assay
T2 construct: expressed in transfected cells; host or cells: HEK293T (transient), membrane preparation
T2 sequence (Q99685 1-303): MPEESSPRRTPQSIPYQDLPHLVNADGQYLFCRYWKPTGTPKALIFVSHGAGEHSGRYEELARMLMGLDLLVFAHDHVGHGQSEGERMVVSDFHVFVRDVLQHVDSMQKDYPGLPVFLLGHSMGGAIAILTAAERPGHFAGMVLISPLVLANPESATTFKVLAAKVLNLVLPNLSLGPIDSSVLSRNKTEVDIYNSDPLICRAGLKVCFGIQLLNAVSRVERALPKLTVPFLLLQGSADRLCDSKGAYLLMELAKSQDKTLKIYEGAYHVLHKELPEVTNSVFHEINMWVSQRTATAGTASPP
Protocol: Cell culture and membrane preparation were performed as previously described. HEK293T cells (source: Dutch Cancer Institute) were grown in DMEM with stable glutamine and phenolred (PAA), 10% New Born Calf serum, penicillin and streptomycin. Cells were passaged every 2–3 days by resuspending in medium and seeding them to appropriate confluence. Membranes were prepared from transiently transfected HEK293T cells. One day prior to transfection 10^7 cells were seeded in a 15 cm petri dish. Cells were transfected by the addition of a 3:1 mixture of polyethyleneimine (60 μg) and plasmid DNA (20 μg) in 2 ml serum-free medium. The medium was refreshed after 24 h, and after 72 h the cells were harvested by suspending them in 20 ml medium. The suspension was centrifuged for 10 min at 1000, rpm, and the supernatant was removed. The cell pellet was stored at −80 °C until use. Cell pellets were thawed on ice and suspended in lysis buffer A (20 mM HEPES, 2 mM DTT, 0.25 M sucrose, 1 mM MgCl2, […] Benzonase). The suspension was homogenized by polytrone (3 × 7 s) and incubated for 30 min on ice. The suspension was subjected to ultracentrifugation (100,000 × g, 30 min, 4 °C, Beckman Coulter, Type Ti70 rotor) to yield the cytosolic fraction in the supernatant and the membrane fraction as a pellet. The pellet was resuspended in lysis buffer B (20 mM HEPES, 2 mM DTT). The protein concentration was determined with Quick Start Bradford assay (Biorad). The protein fractions were diluted to a total protein concentration of 1 mg ml^−1 and stored in small aliquots at −80 °C until use.
Percentage of inhibition of reference ligands was determined in comparison with an untreated control. […] Fluorescence was measured in 5 min intervals for 60 min.

[3] = biological target: T3, hGPR55 (Homo sapiens, UniProt Q9Y2T6); assay: cell-based; details: β-arrestin recruitment
T3 construct: host or cells: CHO-K1 (PathHunter hGPR55_bgal)

[4] = system: AEA cellular uptake in HMC-1 cells; assay: cells; format: cell-based, human; details: read-out: AEA reuptake IC50 (95% CI) HMC-1 cells; FAAH-deficient cells
[5] = biological target: T4, Rat recombinant TRPA1 (Rattus norvegicus, UniProt Q6RI86); assay: cell-based; format: cell-based; details: for EC50: read-out: TRPA1 Potency EC50; for IC50: vs AITC 100μM, 5 min pre-incubation, read-out: TRPA1 IC50 for antagonism or desensitization
T4 construct: expressed in transfected cells

[6] = biological target: T5, alpha 2A (h) (Homo sapiens, UniProt P08913); assay: CEREP panel; format: binding; details: 10 µM
T5 construct: CEREP
T5 sequence (P08913 1-465): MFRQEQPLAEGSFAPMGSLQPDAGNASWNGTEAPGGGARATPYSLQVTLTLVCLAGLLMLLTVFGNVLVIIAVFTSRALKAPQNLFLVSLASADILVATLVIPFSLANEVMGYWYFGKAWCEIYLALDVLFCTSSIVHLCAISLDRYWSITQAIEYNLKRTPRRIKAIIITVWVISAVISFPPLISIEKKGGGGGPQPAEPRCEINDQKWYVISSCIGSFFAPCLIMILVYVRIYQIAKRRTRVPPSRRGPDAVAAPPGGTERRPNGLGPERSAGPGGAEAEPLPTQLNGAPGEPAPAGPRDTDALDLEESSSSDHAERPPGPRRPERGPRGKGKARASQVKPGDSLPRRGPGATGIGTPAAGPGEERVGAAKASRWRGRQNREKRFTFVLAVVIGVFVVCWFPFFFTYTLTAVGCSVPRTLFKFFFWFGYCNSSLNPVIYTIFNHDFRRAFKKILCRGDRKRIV

[7] = biological target: T6, PPARα (h) (Homo sapiens, UniProt Q07869); assay: CEREP panel; format: binding; details: 10 µM
T6 construct: CEREP (contract assay)
T6 sequence (Q07869 1-468): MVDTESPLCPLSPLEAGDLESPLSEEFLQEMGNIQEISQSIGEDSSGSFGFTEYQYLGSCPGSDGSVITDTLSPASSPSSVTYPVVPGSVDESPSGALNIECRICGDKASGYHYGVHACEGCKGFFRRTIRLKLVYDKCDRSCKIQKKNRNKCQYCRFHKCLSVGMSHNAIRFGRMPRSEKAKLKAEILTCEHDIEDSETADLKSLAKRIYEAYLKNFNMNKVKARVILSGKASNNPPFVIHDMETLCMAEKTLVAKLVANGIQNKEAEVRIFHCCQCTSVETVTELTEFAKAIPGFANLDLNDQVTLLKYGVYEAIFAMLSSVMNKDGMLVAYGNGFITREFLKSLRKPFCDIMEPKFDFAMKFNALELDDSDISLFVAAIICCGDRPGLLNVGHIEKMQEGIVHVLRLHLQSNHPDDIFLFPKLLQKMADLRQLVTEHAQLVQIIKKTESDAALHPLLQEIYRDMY

[8] = biological target: mouse P-gp (Mus musculus, UniProt P21447); details: efflux ratio
[9] = biological target: mCB2R (Mus musculus, UniProt P47936); assay: biochemical; format: binding; set-up: from tissue; host or cells: spleen of male C57BL/6J mice
[10] = biological target: hCB2R (Homo sapiens, UniProt P34972); assay: cell-based; format: cell-based; set-up: expressed in transfected cells; host or cells: Flp-In-293 (Invitrogen #R750-07), pcDNA5/FRT
[11] = system: AR (h); assay: CEREP panel; format: binding, human; details: 10 µM
[12] = system: Ca2+ channel (L, diltiazem site); assay: CEREP panel; format: binding; details: 10 µM

T4 sequence (Q6RI86 whole entry): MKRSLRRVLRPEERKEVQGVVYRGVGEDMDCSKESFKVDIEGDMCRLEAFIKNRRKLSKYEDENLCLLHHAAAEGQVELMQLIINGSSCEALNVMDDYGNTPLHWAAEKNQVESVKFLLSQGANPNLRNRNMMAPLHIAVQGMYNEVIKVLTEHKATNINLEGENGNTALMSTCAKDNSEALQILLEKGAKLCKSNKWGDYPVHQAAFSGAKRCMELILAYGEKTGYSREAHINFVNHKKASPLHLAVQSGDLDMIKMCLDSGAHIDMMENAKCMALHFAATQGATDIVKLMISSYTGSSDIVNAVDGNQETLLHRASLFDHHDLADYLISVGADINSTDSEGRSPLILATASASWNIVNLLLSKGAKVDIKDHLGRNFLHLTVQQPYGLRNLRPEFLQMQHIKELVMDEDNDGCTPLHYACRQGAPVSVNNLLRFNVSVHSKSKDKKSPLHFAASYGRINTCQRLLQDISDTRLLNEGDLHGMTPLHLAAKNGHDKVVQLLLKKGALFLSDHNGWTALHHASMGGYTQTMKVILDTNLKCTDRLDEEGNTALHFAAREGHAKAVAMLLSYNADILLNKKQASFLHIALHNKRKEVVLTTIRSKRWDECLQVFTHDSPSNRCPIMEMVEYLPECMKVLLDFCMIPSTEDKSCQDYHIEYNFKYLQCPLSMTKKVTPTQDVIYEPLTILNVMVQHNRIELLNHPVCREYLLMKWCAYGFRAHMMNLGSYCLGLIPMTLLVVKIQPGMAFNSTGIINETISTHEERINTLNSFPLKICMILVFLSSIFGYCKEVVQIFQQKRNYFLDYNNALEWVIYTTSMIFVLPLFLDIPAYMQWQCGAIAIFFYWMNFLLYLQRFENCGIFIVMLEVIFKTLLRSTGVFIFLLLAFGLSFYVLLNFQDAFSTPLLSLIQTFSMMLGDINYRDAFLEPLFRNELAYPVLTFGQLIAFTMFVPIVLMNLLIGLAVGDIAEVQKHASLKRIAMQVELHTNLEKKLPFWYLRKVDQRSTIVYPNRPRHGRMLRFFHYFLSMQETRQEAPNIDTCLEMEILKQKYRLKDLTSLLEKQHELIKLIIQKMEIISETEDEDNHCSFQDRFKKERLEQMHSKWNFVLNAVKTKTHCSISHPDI
Chain of hCB2R (P34972 whole entry): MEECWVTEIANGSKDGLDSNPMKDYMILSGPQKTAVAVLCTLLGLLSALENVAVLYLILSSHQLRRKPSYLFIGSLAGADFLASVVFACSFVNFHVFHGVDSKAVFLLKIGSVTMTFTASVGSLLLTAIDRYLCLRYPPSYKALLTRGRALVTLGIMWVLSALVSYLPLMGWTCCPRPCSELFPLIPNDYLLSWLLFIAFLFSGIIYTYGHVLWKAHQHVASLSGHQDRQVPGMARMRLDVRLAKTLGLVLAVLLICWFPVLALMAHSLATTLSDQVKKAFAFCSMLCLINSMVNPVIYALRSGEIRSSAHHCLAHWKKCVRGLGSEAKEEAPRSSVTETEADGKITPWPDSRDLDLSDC
T3 sequence (Q9Y2T6 whole entry): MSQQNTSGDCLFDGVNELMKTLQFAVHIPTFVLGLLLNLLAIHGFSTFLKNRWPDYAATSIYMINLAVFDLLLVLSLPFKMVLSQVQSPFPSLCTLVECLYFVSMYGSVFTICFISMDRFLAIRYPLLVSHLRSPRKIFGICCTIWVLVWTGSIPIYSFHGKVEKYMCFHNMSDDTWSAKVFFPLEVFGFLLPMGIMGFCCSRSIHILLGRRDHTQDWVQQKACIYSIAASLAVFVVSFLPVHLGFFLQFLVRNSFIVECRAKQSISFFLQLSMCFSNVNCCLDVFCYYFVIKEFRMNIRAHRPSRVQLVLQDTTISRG
T1 sequence (P47746 whole entry): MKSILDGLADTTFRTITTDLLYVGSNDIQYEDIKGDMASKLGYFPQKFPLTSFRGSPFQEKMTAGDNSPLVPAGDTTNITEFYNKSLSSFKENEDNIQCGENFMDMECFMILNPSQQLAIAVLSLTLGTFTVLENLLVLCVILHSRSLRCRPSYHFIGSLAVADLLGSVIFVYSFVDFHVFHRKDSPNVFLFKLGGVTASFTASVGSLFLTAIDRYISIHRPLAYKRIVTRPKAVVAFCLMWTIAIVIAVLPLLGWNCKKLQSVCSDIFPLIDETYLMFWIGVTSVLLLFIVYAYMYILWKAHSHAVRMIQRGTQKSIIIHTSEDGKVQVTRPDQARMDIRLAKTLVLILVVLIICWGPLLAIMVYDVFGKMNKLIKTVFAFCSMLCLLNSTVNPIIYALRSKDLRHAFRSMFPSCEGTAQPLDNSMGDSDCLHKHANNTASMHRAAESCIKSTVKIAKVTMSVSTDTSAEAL
Chain of mCB2R (P47936 whole entry): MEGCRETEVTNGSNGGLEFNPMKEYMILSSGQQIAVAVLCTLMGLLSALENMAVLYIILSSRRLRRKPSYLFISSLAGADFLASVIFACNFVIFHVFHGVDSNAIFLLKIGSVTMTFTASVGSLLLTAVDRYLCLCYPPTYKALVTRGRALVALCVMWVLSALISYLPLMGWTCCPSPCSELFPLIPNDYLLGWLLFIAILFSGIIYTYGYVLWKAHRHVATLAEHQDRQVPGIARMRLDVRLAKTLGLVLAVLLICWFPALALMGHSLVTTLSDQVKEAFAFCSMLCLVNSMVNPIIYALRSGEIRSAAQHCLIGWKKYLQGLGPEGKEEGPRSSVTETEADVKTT
Chain of mouse P-gp (P21447 whole entry): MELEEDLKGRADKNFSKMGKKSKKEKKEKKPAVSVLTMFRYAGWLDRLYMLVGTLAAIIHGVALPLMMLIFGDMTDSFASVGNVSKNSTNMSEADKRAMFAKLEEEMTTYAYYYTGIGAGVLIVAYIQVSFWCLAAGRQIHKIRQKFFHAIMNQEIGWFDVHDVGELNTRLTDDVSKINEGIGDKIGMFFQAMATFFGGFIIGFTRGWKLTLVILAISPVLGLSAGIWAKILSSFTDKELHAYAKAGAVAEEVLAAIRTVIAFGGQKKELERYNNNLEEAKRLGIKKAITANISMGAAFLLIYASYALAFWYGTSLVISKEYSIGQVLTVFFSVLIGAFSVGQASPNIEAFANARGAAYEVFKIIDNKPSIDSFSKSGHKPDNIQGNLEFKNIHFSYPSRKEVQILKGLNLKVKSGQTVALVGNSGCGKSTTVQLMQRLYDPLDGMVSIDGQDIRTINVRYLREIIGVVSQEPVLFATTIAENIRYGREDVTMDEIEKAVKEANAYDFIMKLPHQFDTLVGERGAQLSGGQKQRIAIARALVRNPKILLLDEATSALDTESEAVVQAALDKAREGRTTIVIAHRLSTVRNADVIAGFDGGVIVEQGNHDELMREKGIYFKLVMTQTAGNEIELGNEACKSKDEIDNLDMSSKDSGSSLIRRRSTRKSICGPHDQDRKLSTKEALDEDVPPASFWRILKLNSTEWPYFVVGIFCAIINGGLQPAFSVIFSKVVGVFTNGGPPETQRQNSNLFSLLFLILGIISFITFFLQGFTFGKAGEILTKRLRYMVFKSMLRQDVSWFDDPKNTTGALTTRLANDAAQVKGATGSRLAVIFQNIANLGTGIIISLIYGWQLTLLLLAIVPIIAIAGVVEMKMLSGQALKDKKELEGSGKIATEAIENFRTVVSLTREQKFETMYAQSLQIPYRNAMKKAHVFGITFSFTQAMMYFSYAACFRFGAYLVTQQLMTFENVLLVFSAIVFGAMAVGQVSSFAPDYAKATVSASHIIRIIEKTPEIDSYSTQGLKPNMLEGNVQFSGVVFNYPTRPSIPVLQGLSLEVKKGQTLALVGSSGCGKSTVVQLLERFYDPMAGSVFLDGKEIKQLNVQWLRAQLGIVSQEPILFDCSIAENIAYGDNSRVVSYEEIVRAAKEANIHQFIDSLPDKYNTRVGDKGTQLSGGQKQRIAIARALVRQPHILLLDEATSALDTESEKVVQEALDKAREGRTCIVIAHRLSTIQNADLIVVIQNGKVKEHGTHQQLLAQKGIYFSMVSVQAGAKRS

Compound	Emax cAMP mCB1R ([1]; normalized to 10 µM CP55940)	MAGL % inhibition at 10 µM ± SD [2]	GPR55 Emax ± SEM (%) or % effect at 10 µM [3]	GPR55 pEC50 (± SEM) [3]	IC50 [4]	TRPA1 Efficacy (%AITC 100μM) [5]	EC50 [5]	IC50 [5]	% inhibition alpha 2A (h) [6]	% inhibition PPARα (h) [7]	P-gp (ER) mouse [8]	pKi ± SEM mCB2R ([9]; mouse spleen membranes)	Emax ± SEM GIRK hCB2R ([10]; normalized to CP55940)	Emax cAMP mCB1R [1]	pEC50 ± SEM cAMP mCB1R [1]	CB2R Selectivity (binding, mouse) [9]	pEC50 ± SEM GIRK hCB2R [10]	% inhibition AR (h) [11]	% inhibition Ca2+ channel (L, diltiazem site) [12]	further results
CCCCCCC(C)(C)c1cc(OC)c(C2=C[C@H]3CC[C@]2(CO)C3(C)C)c(OC)c1 [HU910]	36%	20 ± 12%	-10 ± 3%	< 5	> 5 µM	33.1%	53.1 µM	> 100 µM	7%	-28%	3.0	6.88 ± 0.17	74 ± 2%							pEC50 ± SEM cAMP mCB1R ([1]; mouse brain): < 5
CCCC(C)(C)c1ccc2c(c1)OC(C)(C)[C@@H]1CC=C(C)C[C@@H]21 [JWH133]		-20 ± 5%	-2 ± 3%	< 5		76.8% and 77 ± 4% and 76.8±3.8%	8.5 ± 2.3 µM	20 µM	-18%	-25%	1.7	7.69 ± 0.23		11	< 5	40 fold	< 5			Emax ± SEM GIRK hCB2R [10]: 31 ± 12
CN1CCCCC1Cn1cc(C(=O)c2cc([N+](=O)[O-])ccc2I)c2ccccc21 (racemic) [(rac)-AM1241]		-2 ± 17%										7.73 ± 0.25	59 ± 14%	21	< 5	66 fold	5.23 ± 0.21			
Cc1c(C(=O)c2cccc3ccccc23)c2cccc3c2n1[C@H](CN1CCOCC1)CO3 [WIN55212-2]		3 ± 18%		< 5	> 5 µM	72.3% and 72 ± 1%	2.3 µM	6.4 ± 0.6 µM	0%	-4%		7.28 ± 0.17						8%	55%	
SR144528	-39%	3 ± 16%			> 10 µM	43.8%			-5%	-14%								-12%	10%	
CCCCC/C=C\C/C=C\C/C=C\C/C=C\CCCC(=O)OC(CO)CO [2-AG, 2-arachidonoyl glycerol]																				EC50 ([1]; mouse brain, read-out: pEC50 ± SEM cAMP mCB1R (converted)): > 6.31 µM and 6.92 µM; inhibition at 10 µM ([2]; read-out: MAGL % inhibition at 10 µM ± SD): 3 ± 15%; Ki ([9]; mouse spleen membranes, read-out: pKi ± SEM mCB2R (converted)): 0.0295 µM; Emax ([10]; AtT20, read-out: Emax ± SEM GIRK hCB2R): 100 ± 2%

Source: paper PMC5216056 (Nature Communications, 2017)
